Source: patent US20230399325A1, “SUCCINATE AND CRYSTAL FORM THEREOF AS THERAPEUTICS” (AUCENTRA THERAPEUTICS PTY LTD, priority 2020, published 2023)
Like-named read-outs stand apart in the source and are kept apart here.

Legend:
[1] = tested on: ZR-75-1; assay: Thymidine incorporation (3H-TdR) anti-proliferative assay, ZR-75-1; format: cell-based; settings: Homo sapiens; ZR-75-1, Breast cancer
Method: (§1) The thymidine incorporation (3H-TdR) assay was used to assess the anti-proliferative effect of the Compound A succinate on tumor cell lines. The cells were treated with a series of concentrations of Compound A succinate for 24 hours; 3H-TdR was added, and the cells were continued in the incubator for further 48 hours. Scintillation fluid was added, read on a liquid scintillation counter, and the inhibiting cell growth by 50% (IC50) was calculated as shown in Table 5.

[2] = Solid-state stability, 14 days, HPLC; format: physicochemical
Method: Compound A salts and Compound A were tested for their solid-state stability under the conditions of 25° C./60% RH and 40° C./75% RH.

[3] = tested on: U-87MG; assay: Thymidine incorporation (3H-TdR) anti-proliferative assay, U-87MG; format: cell-based; settings: Homo sapiens, Brain tumor
Method: as §1

[4] = tested on: A2780 ovarian cancer cells; assay: Subcutaneous A2780 ovarian cancer xenograft; format: in vivo, female BALB/c nude mice; settings: for Tumor volume (±S): 14 days; for Mean tumor growth inhibition (T/C): day 14
Method: Compound A succinate was also assessed for in vivo anti-tumor activity in subcutaneous xenografts. Briefly, female BALB/c nude mice were inoculated with A2780 ovarian cancer cells; when the mean tumour volume reached 150-200 mm^3, animals were randomized to groups. The animals (n=8 per group) were treated orally with vehicle (ultra-pure water), Compound A succinate (62.5, 125 or 250 mg/kg), or Palbociclib (75 mg/kg) once a day for 14 consecutive days. Mice were observed daily for signs of toxicity and weight loss, and tumour volume measured every other day. […] Palbociclib was efficacious at 75 mg/kg, resulting in T/C of 42.8% (Table 6).

[5] = tested on: COLO-205; assay: Thymidine incorporation (3H-TdR) anti-proliferative assay, COLO-205; format: cell-based; settings: Homo sapiens; COLO-205, Colon cancer
Method: as §1

[6] = Hygroscopicity by dynamic moisture adsorption (DVS); format: physicochemical; settings: for Hygroscopicity: 25° C./80% RH, succinate
Method: Dynamic moisture adsorption (DVS) was used to evaluate the hygroscopicity of compound A and salt forms under the condition of 25° C. and 80% RH.

[7] = Pharmacokinetic study of Compound A succinate in cynomolgus monkeys; format: in vivo; settings: for AUC(0-inf) / AUC(0-t) / Cmax / clearance / half-life / Vd: cynomolgus monkey, plasma; for Vd: read-out: Vz; for F: succinate
Method: In a separate study, four cynomolgus monkeys were divided into two groups (n=2 per group), and given Compound A succinate at 2 mg/kg by i.v. and 24 mg/kg by i.g., respectively. The plasma samples were collected, analyzed and PK parameters were calculated as above.

[8] = Dynamic solubility in water and FaSSIF at 37° C.; format: physicochemical; settings: for solubility at 1 h / solubility at 2 h / solubility at 4 h / solubility at 24 h: thermodynamic from solid, read-out: S: Solubility
[9] = tested on: PC-3; assay: Thymidine incorporation (3H-TdR) anti-proliferative assay, PC-3; format: cell-based; settings: Homo sapiens; PC-3, Prostate cancer
Method: as §1

[10] = tested on: COLO 205 colorectal tumor xenograft; assay: COLO 205 colorectal tumor xenograft; format: in vivo, mice; settings: for Tumor volume (±S): 21 days; for Inhibition of tumor growth (T/C): day 21, succinate
Method: A separate study of Compound A succinate was conducted in COLO 205 colorectal tumor xenograft. The tumor-bearing mice (n=8) were treated orally with vehicle (ultra-pure water), or Compound A succinate (50 or 100 mg/kg) once daily for 21 days. As a positive control chemotherapy 5-FU (15 mg/kg) was given intraperitoneally. […] 5-FU was also effective with a T/C=47.2% (Table 7).

[11] = tested on: Raji; assay: Thymidine incorporation (3H-TdR) anti-proliferative assay, Raji; format: cell-based; settings: Homo sapiens, Lymphoma
Method: as §1

[12] = tested on: SK-OV-3; assay: Thymidine incorporation (3H-TdR) anti-proliferative assay, SK-OV-3; format: cell-based; settings: Homo sapiens; SK-OV-3, Ovarian cancer
Method: as §1

[13] = tested on: PANC-1; assay: Thymidine incorporation (3H-TdR) anti-proliferative assay, PANC-1; format: cell-based; settings: Homo sapiens; PANC-1, Pancreatic cancer
Method: as §1

[14] = tested on: MV-4-11; assay: Thymidine incorporation (3H-TdR) anti-proliferative assay, MV-4-11; format: cell-based; settings: Homo sapiens, MV4-11; MV-4-11, Leukemia
Method: as §1

[15] = tested on: MDA-MB-435S; assay: Thymidine incorporation (3H-TdR) anti-proliferative assay, MDA-MB-435S; format: cell-based; settings: Homo sapiens, Breast cancer
Method: as §1

[16] = tested on: MOLM-13; assay: Thymidine incorporation (3H-TdR) anti-proliferative assay, MOLM-13; format: cell-based; settings: Homo sapiens; MOLM-13, Leukemia
Method: as §1

[17] = iv, i.v. 2 mg/kg, female cynomolgus monkeys
[18] = iv, i.v. 2 mg/kg, male cynomolgus monkeys
[19] = po, i.g. 24 mg/kg, female cynomolgus monkeys
[20] = po, i.g. 24 mg/kg, male cynomolgus monkeys

Structure (SMILES): CCN1CCN(Cc2ccc(Nc3ncc(F)c(-c4sc(NC5CCCC5)nc4C)n3)nc2)CC1.O=C(O)CCC(=O)O [Compound A succinate, N-Cyclopentyl-5-(2-((5-((4-ethylpiperazin-1-yl)methyl)pyridin-2-yl)amino)-5-fluoropyrimidin-4-yl)-4-methylthiazol-2-amine succinate]
- IC50 [1]: 0.0357 µM
- Purity ([2]; 25° C./60% RH): 97.9 area %
- Relative purity ([2]; 25° C./60% RH): 100.0 % of initial
- Purity ([2]; 40° C./75% RH): 97.9 area %
- Relative purity ([2]; 40° C./75% RH): 100.0 % of initial
- IC50 [3]: 0.0426 µM
- Tumor volume (±S) ([4]; 62.5 mg/kg orally once a day): 1789.5 ± 131.5 mm^3
- Mean tumor growth inhibition (T/C) ([4]; 62.5 mg/kg orally once a day): 44.8%
- Tumor volume (±S) ([4]; 125 mg/kg orally once a day): 1009.6 ± 87.0 mm^3
- Mean tumor growth inhibition (T/C) ([4]; 125 mg/kg orally once a day): 70.8%
- Tumor volume (±S) ([4]; 250 mg/kg orally once a day): 546.4 ± 71.1 mm^3
- Mean tumor growth inhibition (T/C) ([4]; 250 mg/kg orally once a day): 86.2%
- IC50 [5]: 0.839 µM
- Moisture absorbed at 25° C./80% RH [6]: 1.1%
- Hygroscopicity ([6]; listed as Succinate): Slightly hygroscopic
- Hygroscopicity [6]: minimal hygroscopicity
- AUC(0-inf) [7, 17]: 1.19 µg·h/mL
- AUC(0-t) [7, 17]: 1.17 µg·h/mL
- Cmax [7, 17]: 0.371 µg/mL
- clearance [7, 17]: 1.86 L/h/kg
- half-life [7, 17]: 4.7 h
- Vd [7, 17]: 13.2 L/kg
- AUC(0-inf) [7, 18]: 0.872 µg·h/mL
- AUC(0-t) [7, 18]: 0.843 µg·h/mL
- Cmax [7, 18]: 0.24 µg/mL
- clearance [7, 18]: 2.35 L/h/kg
- half-life [7, 18]: 5.3 h
- Vd [7, 18]: 17.7 L/kg
- AUC(0-inf) [7, 19]: 7.74 µg·h/mL
- AUC(0-t) [7, 19]: 7.7 µg·h/mL
- Cmax [7, 19]: 0.532 µg/mL
- half-life [7, 19]: 6 h
- AUC(0-inf) [7, 20]: 7.42 µg·h/mL
- AUC(0-t) [7, 20]: 7.37 µg·h/mL
- Cmax [7, 20]: 0.593 µg/mL
- half-life [7, 20]: 6 h
- F ([7]; i.g. 24 mg/kg, female cynomolgus monkeys): 54.9%
- F ([7]; i.g. 24 mg/kg, male cynomolgus monkeys): 72.8%
- solubility compared to Compound A free base ([8]; both FaSSIF and water): significantly increased
- solubility at 1 h ([8]; FaSSIF): 8.2 mg/mL
- solubility at 2 h ([8]; FaSSIF): 8.1 mg/mL
- solubility at 4 h ([8]; FaSSIF): 8.1 mg/mL
- solubility at 24 h ([8]; FaSSIF): 1.1 mg/mL
- solubility at 1 h ([8]; water, H2O): 2 mg/mL
- solubility at 2 h ([8]; water, H2O): 2 mg/mL
- solubility at 4 h ([8]; water, H2O): 2.1 mg/mL
- solubility at 24 h ([8]; water, H2O): 2.3 mg/mL
- IC50 [9]: 0.168 µM
- Tumor volume (±S) ([10]; 50 mg/kg orally once daily): 941.10 ± 80.90 mm^3
- Inhibition of tumor growth (T/C) ([10]; 50 mg/kg orally once daily, listed as compound A Succinate): 36.26%
- Inhibition of tumor growth (T/C) ([10]; 50 mg/kg orally once daily): 36.3%
- Tumor volume (±S) ([10]; 100 mg/kg orally once daily): 443.72 ± 40.49 mm^3
- Inhibition of tumor growth (T/C) ([10]; 100 mg/kg orally once daily, listed as compound A Succinate): 74.69%
- Inhibition of tumor growth (T/C) ([10]; 100 mg/kg orally once daily): 74.7%
- IC50 [11]: 0.608 µM
- IC50 [12]: 0.812 µM
- IC50 [13]: 0.812 µM
- IC50 [14]: 0.0888 µM
- IC50 [15]: 0.0373 µM
- IC50 [16]: 0.26 µM
